{
  "source": "paper PMC10755736",
  "about": "“Modulating Liquid–Liquid Phase Separation of Nck Adaptor Protein against Enteropathogenic Escherichia coli Infection” (ACS Central Science, 2023)",
  "key": {"Nck/N-WASP/3pY [1]": {"biological_target": "T1, Nck/N-WASP/3pY (Homo sapiens, UniProt P16333)", "T1 construct": "GST (followed by PreScission/HRV 3C site) (N, cleaved yes); made in house; host or cells: E. coli BL21(DE3)", "test": "Disruption of Nck/N-WASP/3pY droplets by pY peptides (microscopy)", "format": "biochemical", "conditions": "peptide 12.5, 25, 50, 100 µM; 0, 10, 30 min; Nck 80 μM, N-WASP 15 μM, 3pY 10 μM; confocal", "method": "(§1) Next, we explored the intervention of Nck/N-WASP/3pY LLPS using pY peptides (Figure 3a). Three pY-containing peptides extracted from different Tir sequences were synthesized, namely, peptides Y474, Y751, and Y147 (Figure 3b).\nFigure 3 pY peptides disrupt Nck/N-WASP/3pY LLPS. (a) Sequences of synthetic pY peptides. […] Nck: 20 μM; N-WASP: 10 μM; 3pY: 10 μM. Scale bars, 20 μm. (c) Peptide Y474 rapidly decreases the turbidity of the Nck/N-WASP/3pY solution in around 20 min. Nck: 20 μM, N-WASP: 10 μM, 3pY: 10 μM. […] Nck: 20 μM, N-WASP: 10 μM, 3pY: 10 μM. […]\npeptide 0 min 10 min 30 min\nPeptides p1 with different concentrations were added to decrease the droplet formation of the Nck/N-WASP/3pY solution and droplet disassembles were observed under confocal microscopy at different times (0 min, 10 min and 30 min). Nck: 80 μM, N-WASP: 15 μM, 3pY: 10 μM. […]\nFigure S13. […] Peptides Y474 with […]\ndifferent concentrations were added to decrease the droplet formation of the Nck/N-WASP/3pY solution and droplet disassembles were observed under confocal microscopy at different times (0 min, 10 min and 30 min). Nck: 80 μM, N-WASP: 15 μM, 3pY: 10 μM."}, "Nck/N-WASP/3pY [2]": {"biological_target": "T1, Nck/N-WASP/3pY", "test": "Turbidity assay of Nck/N-WASP/3pY solution", "format": "biochemical", "conditions": "Nck droplets; text cites Figures S12 and S13", "method": "as §1\nFigure 3 pY peptides disrupt Nck/N-WASP/3pY LLPS. (a) Sequences of synthetic pY peptides. […] Nck: 20 μM; N-WASP: 10 μM; 3pY: 10 μM. Scale bars, 20 μm. (c) Peptide Y474 rapidly decreases the turbidity of the Nck/N-WASP/3pY solution in around 20 min. Nck: 20 μM, N-WASP: 10 μM, 3pY: 10 μM. […] Nck: 20 μM, N-WASP: 10 μM, 3pY: 10 μM.\n(Cytiva, Hong Kong) using a gradient from 100 to 500 mM NaCl and Superdex 75 10/300 GL column (Cytiva, Hong Kong) in 25 mM HEPES, 150 mM NaCl, and 2 mM βME at pH 7.5.\nProteins were buffer-exchanged through a Hi-trap desalting column (Cytiva, Hong Kong) to the reaction buffer. For Cy5 labeling, the buffer was 0.1 M sodium bicarbonate buffer at pH 8.3. For FITC labeling, the buffer was 50 mM sodium borate at pH 8.5. […]\nFluorescence Recovery after Photobleaching (FRAP) Assay\nFluorescence recovery in vitro was conducted with a DMi8 microscope (Leica, Germany). […]\nThe fluorescence intensity was quantified and normalized by ImageJ.\nFluorescence recovery after photobleaching experiments inside mammalian cells was conducted with a two-photon imaging system using a custom-built upright microscope, based on a previously used imaging setup. […]"}, "[3]": {"system": "Nck puncta in Caco-2 cells", "test": "Nck puncta number in Caco-2 cells overexpressing dsRed-Nck", "format": "cell-based", "conditions": "L17E 40 μM, p1 1 μM, N = 20 cells", "source_text": "Figure 6 Peptide p1 inhibits the formation of the Nck/N-WASP condensate in mammalian cells. (a) Schematic illustration showing inhibition of intracellular Nck coacervation by p1. (b) Confocal microscopic images showing the formation of Nck/N-WASP puncta in HeLa cells that overexpress GFP-N-WASP and dsRed-Nck. Scale bar: 10 μm. (c) FRAP analysis showing the Nck/N-WASP condensates in HeLa cells have fluidity properties based on the recovery of the GFP fluorescent signal after photobleaching in a two-photon microscope with excitation at 920 nm. Scale bar: 5 μm. […] L17E, 40 μM; p1, 1 μM. Statistical analyses of puncta number per cell in the control and experiment (L17E/p1). N = 20 cells. […]\nconcentrations were added to each well, followed by a 90-min incubation at 37 °C. Diluted streptavidin-HRP solution was then added, followed by substrate solution to develop cover at 450 nm, and recorded by a plate reader. […] And then the samples were scanned and measured at 20% IR Laser power with 30 s laser-on time on a Monolith NT.115 instrument (NanoTemper Technologies). The data were analyzed by KD fitting model (KD) or hill fitting model […]\nPlasmid extraction was done using a plasmid DNA Maxi kit (Omega Bio-Tek, GA, USA). […] 48 h after transfection, cells were analyzed by fluorescent micrscopes. Cell viability was measured by a CCK8 assay (Thermo Fisher Scientific) according to its manual."}},
  "note": "Entries after “also recorded” stand apart in the source; their conditions may differ. Non-standard residues stand in square brackets, D forms with d. Residues, ends and D or L forms follow the SMILES beside them. *: point of attachment. Biotin = O=C1N[C@H]2[C@H](CS[C@H]2CCCCC(=O)*)N1; Benzoyl(4-SO2F) = O=C(c1ccc(S(=O)(=O)F)cc1)*; pY = N[C@@H](Cc1ccc(OP(=O)(O)O)cc1)C(=O)O; Dap = NC[C@H](N)C(=O)O",
  "data": [
    {"compound": "CC[C@H](C)[C@H](NC(=O)[C@H](Cc1c[nH]cn1)NC(=O)[C@H](CCC(=O)O)NC(=O)[C@H](CCC(=O)O)NC(=O)CCCC[C@@H]1SC[C@@H]2NC(=O)N[C@@H]21)C(=O)N[C@@H](Cc1ccc(OP(=O)(O)O)cc1)C(=O)N[C@@H](CNC(=O)c1ccc(S(=O)(=O)F)cc1)C(=O)N[C@@H](CCC(=O)O)C(=O)N[C@H](C(=O)N[C@@H](C)C(=O)N[C@@H](C)C(=O)N[C@@H](CC(=O)O)C(N)=O)C(C)C", "note": "[p1] (Biotin-EEHI[pY][Dap](Benzoyl(4-SO2F))EVAAD-NH2; N-terminus and C-terminus assumed)", "values": [
      {"measurement": "reversal of Nck/N-WASP/3pY phase separation (droplet disassembly)", "setting": "Nck/N-WASP/3pY [1]", "result": "reverses the phase separation; also recorded: disintegrate phase-separated Nck droplets"},
      {"measurement": "reduction of solution turbidity, p1 and Y474 compared", "setting": "Nck/N-WASP/3pY [2]", "result": "reduce the turbidity of the solution"},
      {"measurement": "number of Nck puncta", "setting": "[3]", "result": "reduced the number of Nck puncta"},
      {"measurement": "decline in Nck puncta numbers", "setting": "[3]; 2 h", "result": 50, "unit": "%"}
    ]}
  ]
}
